Literature values as cited in patent publication US20030181473A1, “Farnesyl protein transferase inhibitor combinations with taxane compounds” (priority 2000, published 2003).

Assays:
human tumor cells = details: combination of paclitaxel and the farnesyl transferase inhibitor, in vitro
colon cancer (LoVo) = details: combination of paclitaxel and the farnesyl transferase inhibitor; mouse colon cancer (LoVo) model

SMILES: Cn1cncc1C(N)(c1ccc(Cl)cc1)c1ccc2c(c1)c(-c1cccc(Cl)c1)cc(=O)n2C (single isomer, unassigned; (+)) [(+)-6-[amino(4-chlorophenyl)(1-methyl-1H-imidazol-5-yl)methyl]-4-(3-chlorophenyl)-1-methyl-2(1H)-quinolinone]
- anti-tumor effect of the combination (human tumor cells): additive anti-tumor effect
- anti-tumor effect of the combination (colon cancer (LoVo)): additive anti-tumor effect
